Assays:
[1] = tested on: K204 Mtb; assay type: cell-based, Mycobacterium tuberculosis; conditions: for K204 MICKAN: KAN MIC in presence of compound at concentration tested (100x IC50 or 20 μM), KAN line = absence of compound
[2] = tested on: H37Rv Mtb; assay: Mycobacterial MIC determination by alamar blue assay, KAN with sulfonyl isothiazoles; assay type: cell-based, Mycobacterium tuberculosis; conditions: KAN MIC in presence of compound at concentration tested (100x IC50 or 20 μM); KAN line = absence of compound
[3] = target: Eis_Mtb acetyltransferase (Mycobacterium tuberculosis (strain ATCC 25618 / H37Rv), UniProt P9WFK7); assay type: biochemical; conditions: library compounds 20 μM
[4] = tested on: Mtb K204; assay type: cell-based, Mycobacterium tuberculosis
[5] = tested on: AAC(3)-IV; assay: Inhibitor selectivity, sulfonamides; assay type: biochemical, E. coli; conditions: concentrations as high as 200 μM
Procedure: (§1) To examine the selectivity of our two best inhibitors (39 and 46) towards Eis, next these two compounds were tested against three other AAC enzymes: AAC(2′)-Ic from Mtb (17, 18), AAC(3)-IV from E. coli (19, 20), and AAC(6′)-Ie/APH(2″)-Ia from Staphylococcus aureus (21, 22).
(§2) The conditions utilized for determination of IC50 values were also used here under the optimum conditions for each enzyme. […] AAC(6′)-Ie/APH(2″)-Ia experiments were incubated at 37° C. All other methods and concentrations are the same as for the experiments with Eis_Mtb.

[6] = target: T1, AAC(6′)-Ie/APH(2″)-Ia (Staphylococcus aureus, UniProt P0A0C1); assay: Inhibitor selectivity, sulfonamides; assay type: biochemical; conditions: concentrations as high as 200 μM
Procedure: as §1, §2

[7] = target: T2, AAC(2′)-Ic (Mycobacterium tuberculosis (strain ATCC 25618 / H37Rv), UniProt P9WQG9); assay: biochemical; set-up: species or system Mtb; conditions: read-out: inhibition of AAC(2′)-Ic activity
[8] = target: T1, AAC(6′)-Ie/APH(2″)-Ia; assay: Inhibitor selectivity, sulfonyl isothiazoles; assay type: biochemical; conditions: optimal reaction conditions for the enzyme
[9] = target: purified Eis (Mycobacterium tuberculosis (strain ATCC 25618 / H37Rv), UniProt P9WFK7); conditions: read-out: IC50 (μM) in the Eis acetyltransferase assay
[10] = tested on: AAC(3)-IV; assay: Inhibitor selectivity, sulfonyl isothiazoles; assay type: biochemical, E. coli; conditions: optimal reaction conditions for the enzyme
[11] = target: T2, AAC(2′)-Ic
Procedure: The conditions described above for determination of IC50 values were used under the optimum conditions for each enzyme. […] AAC(6′)/APH(2″) experiments were incubated at 37° C. while AAC(3)-IV and AAC(2′)-Ic experiments were incubated at 25° C. All other methods and concentrations remained identical to those for the experiments with Eis.

Row | Structure (SMILES) | K204 MICKAN [1] | H37Rv MICKAN [2] | other results
1 | CCN(CC)CCCNC1=NS(=O)(=O)C(c2ccc(C)c(C)c2)=C1C [Compound 3i] | 1.25 µg/mL | 0.625 µg/mL | reduction in KAN MIC against Mtb K204 [1]: 8 fold
2 | CC1=C(c2ccc(F)cc2)S(=O)(=O)N=C1NCCCN1CCCCC1 [Compound 6b] | 2.5 µg/mL | 0.625 µg/mL | 
3 | CC1=C(c2ccc(F)cc2)S(=O)(=O)N=C1NCCCN1CCCCC1C (centres unmarked) [Compound 7b] | 2.5 µg/mL | 0.625 µg/mL | 
4 | CC1=C(c2ccccc2)S(=O)(=O)N=C1NCCCN1CC(C)CC(C)C1 (centres unmarked) [Compound 8a] | 5 µg/mL | 0.625 to 1.25 µg/mL | 
5 | CC1=C(c2ccc(C)cc2)S(=O)(=O)N=C1NCCCN1CC(C)CC(C)C1 (centres unmarked) [Compound 8e] | 2.5 to 5 µg/mL | 0.625 µg/mL | 
6 | CC1=C(c2ccc(Cl)cc2)S(=O)(=O)N=C1NCCCN1CCc2ccccc2C1 [Compound 11c] | 1.25 µg/mL | 0.625 µg/mL | reduction in KAN MIC against Mtb K204 [1]: 8 fold
7 | CC1=C(c2ccc(C)cc2)S(=O)(=O)N=C1NCCCN1CCCCCC1 [Compound 12e] | 2.5 µg/mL | 0.625 µg/mL | 
8 | CC1=C(c2ccccc2)S(=O)(=O)N=C1NCCCN1CCOCC1 [Compound 13a] | 2.5 µg/mL | 0.625 µg/mL | 
9 | CC1=C(c2ccc(C)cc2)S(=O)(=O)N=C1NCCCN1CCOCC1 [Compound 13e] | 2.5 µg/mL | 0.625 µg/mL | 
10 | CC1=C(c2cccc(Cl)c2)S(=O)(=O)N=C1NCCCN1CCOCC1 [Compound 13g] | 2.5 to 5 µg/mL | 0.625 µg/mL | 
11 | CC1=C(c2ccc(C)c(C)c2)S(=O)(=O)N=C1NCCCN1CCOCC1 [Compound 13i] | 5 µg/mL | 0.625 µg/mL | 
12 | CC1=C(c2ccc(Cl)cc2)S(=O)(=O)N=C1NCCCN1CCN(C)CC1 [Compound 14c] | 5 µg/mL | 0.625 µg/mL | 
13 | CCCN1CCN(CCCNC2=NS(=O)(=O)C(c3ccc(C)cc3)=C2C)CC1 [Compound 15e] | 5 µg/mL | 0.625 to 1.25 µg/mL | 
14 | CCCN1CCN(CCCNC2=NS(=O)(=O)C(c3ccc(C(C)C)cc3)=C2C)CC1 [Compound 15f] | 10 µg/mL | 0.625 to 1.25 µg/mL | 
15 | CC1=C(c2ccc(C)c(C)c2)S(=O)(=O)N=C1NCCCN1CCN(C2CCCCC2)CC1 [Compound 17i] | 5 µg/mL | 0.625 to 1.25 µg/mL | 
16 | CN(c1ccc(Br)cc1)S(=O)(=O)c1ccc2[nH]c(=O)c(=O)[nH]c2c1 [Compound 29] |  |  | Eis inhibition in the HTS [3]: identified as hits; reduction of KAN MIC value compared to KAN alone ([4]; K204 Mtb): four-fold
17 | CC1=C(c2ccccc2)S(=O)(=O)N=C1NCCN1CCCCC1 [Compound 33a] | 5 µg/mL | 0.625 µg/mL | 
18 | CC(C)c1ccc(N(C)S(=O)(=O)c2ccc3[nH]c(=O)c(=O)[nH]c3c2)cc1 [Compound 35] |  |  | K204 MICKAN ([4]; anti-TB activity of KAN against Mtb K204 with compound, KAN line = KAN alone): 2.5 µg/mL
19 | CC1=C(c2ccc(C)cc2)S(=O)(=O)N=C1NCCN1CCOCC1 [Compound 35e] | 5 µg/mL | 0.625 µg/mL | 
20 | CC1=C(c2cccc(Cl)c2)S(=O)(=O)N=C1NCCN1CCOCC1 [Compound 35g] | 2.5 µg/mL | 0.625 µg/mL | 

Row | Structure (SMILES) | K204 MICKAN [1] | H37Rv MICKAN [2] | other results
21 | CC1=C(c2cccc(Br)c2)S(=O)(=O)N=C1NCCN1CCOCC1 [Compound 35h] | 2.5 µg/mL | 0.625 µg/mL | 
22 | CC1=C(c2ccc(C)c(C)c2)S(=O)(=O)N=C1NCCN1CCOCC1 [Compound 35i] | 2.5 µg/mL | 0.625 µg/mL | 
23 | COc1ccc(C2=C(C)C(NCCN3CCN(C)CC3)=NS2(=O)=O)cc1 [Compound 36d] | 2.5 to 5 µg/mL | 0.625 µg/mL | 
24 | CCN1CCN(CCNC2=NS(=O)(=O)C(c3ccc(F)cc3)=C2C)CC1 [Compound 37b] | 2.5 to 5 µg/mL | 0.625 µg/mL | 
25 | CCN1CCN(CCNC2=NS(=O)(=O)C(c3ccc(OC)cc3)=C2C)CC1 [Compound 37d] | 5 to 10 µg/mL | 0.625 to 1.25 µg/mL | 
26 | COc1cccc(N(C)S(=O)(=O)c2ccc3[nH]c(=O)c(=O)[nH]c3c2)c1 [Compound 39] |  |  | inhibition of KAN acetylation by AAC(3)-IV [5]: did not inhibit; inhibition of KAN acetylation by AAC(6′)-Ie/APH(2″)-Ia [6]: did not inhibit; inhibition at 200 µM [7]: 15%
27 | CC1=C(c2ccccc2)S(=O)(=O)N=C1N1CCC(N2CCCCC2)CC1 [Compound 46a] | 10 µg/mL | 0.625 to 1.25 µg/mL | 
28 | CC1=C(c2ccc(F)cc2)S(=O)(=O)N=C1N1CCC(N2CCCCC2)CC1 [Compound 46b] | 5 µg/mL | 0.625 to 1.25 µg/mL | inhibition of AAC(6′)-Ie/APH(2″)-Ia [8]: no inhibition; IC50 [9]: 0.092 ± 0.021 µM; inhibition of AAC(3)-IV [10]: no inhibition; inhibition of AAC(2′)-Ic [11]: no inhibition
29 | CC1=C(c2ccc(Cl)cc2)S(=O)(=O)N=C1N1CCC(N2CCCCC2)CC1 [Compound 46c] | 2.5 µg/mL | 0.625 µg/mL | inhibition of AAC(6′)-Ie/APH(2″)-Ia [8]: no inhibition; inhibition of AAC(3)-IV [10]: no inhibition; inhibition of AAC(2′)-Ic [11]: no inhibition
30 | CC1=C(c2cccc(Br)c2)S(=O)(=O)N=C1N1CCC(N2CCCCC2)CC1 [Compound 46h] | 5 µg/mL | 0.625 µg/mL | 
31 | CC1=C(c2ccc(C)c(C)c2)S(=O)(=O)N=C1N1CCC(C(=O)N2CCCC2)CC1 [Compound 52i] | 2.5 µg/mL | 0.625 µg/mL | 
32 | CCN(CC)C1=NS(=O)(=O)C(c2ccc(F)cc2)=C1C [Compound 81b] | 2.5 to 5 µg/mL | 0.625 µg/mL | 
33 | CCN(CC)C1=NS(=O)(=O)C(c2cccc(Cl)c2)=C1C [Compound 81g] | 2.5 µg/mL | 0.625 µg/mL | 
34 | CC1=C(c2ccc(F)cc2)S(=O)(=O)N=C1NCc1ccco1 [Compound 87b] | 10 µg/mL | 1.25 µg/mL | 
35 | CC1=C(c2ccc(F)cc2)S(=O)(=O)N=C1NCc1ccccc1 [Compound 89b] | 10 µg/mL | 1.25 µg/mL | 
36 | CC1=C(c2ccc(C)c(C)c2)S(=O)(=O)N=C1NCC(=O)NCc1ccc2c(c1)OCO2 [Compound 115i] | 10 µg/mL | 0.625 µg/mL | 
37 | CCCNC1=NS(=O)(=O)C(c2ccc(F)cc2)=C1C [Compound 139b] | 10 µg/mL | 0.625 µg/mL | 
38 | CCCNC1=NS(=O)(=O)C(c2ccc(C)cc2)=C1C [Compound 139e] | 10 µg/mL | 1.25 µg/mL | 
39 | CCCNC1=NS(=O)(=O)C(c2ccc(C)c(C)c2)=C1C [Compound 139i] | 10 µg/mL | 1.25 µg/mL | 
40 | NC[C@H]1O[C@H](O[C@H]2[C@H](O)[C@@H](O[C@H]3O[C@H](CO)[C@@H](O)[C@H](N)[C@H]3O)[C@H](N)C[C@@H]2N)[C@H](O)[C@@H](O)[C@@H]1O [KAN, kanamycin A, reference compound] | 10 µg/mL | 1.25 µg/mL | 

— US10208000B2, “Eis inhibitors” (priority 2015, dated 2019)
